Our source for the Ki values is US10472347B2, “Aminopyrazine compounds with A2A antagonist properties” (Merck Sharp & Dohme Corp., priority 2014, dated 2019).

As usually defined, the Ki is a dissociation constant, usually derived from enzyme kinetics or from competition with a known ligand.

This assay concerns the target T1, human A2a receptor (Homo sapiens, UniProt P29274).
T1 construct: purchased Perkin-Elmer RBHA2AM400UA; host or cells: HEK293 cells (membranes)
The experiment in a line: A2a competition binding assay, Scintillation Proximity technology. The note with it: membranes from HEK293 cells expressing human A2a receptor; Ki by Cheng-Prusoff equation. The essentials: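 SPA competition: 0.5 nM tritiated pyrazolotriazolopyrimidine ligand displaced by compound at 3000 to 0.15 nM, 1 h room temperature, human A2a HEK293 membranes pretreated with adenosine deaminase, PBS/10 mM MgCl2 buffer. CGS15943 1 μM defined non-specific binding; EC50 converted to Ki via Cheng-Prusoff.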
On the technique in general: In a scintillation proximity assay essentially only radioactivity close to the scintillant gives light.

T1 sequence (P29274 whole entry): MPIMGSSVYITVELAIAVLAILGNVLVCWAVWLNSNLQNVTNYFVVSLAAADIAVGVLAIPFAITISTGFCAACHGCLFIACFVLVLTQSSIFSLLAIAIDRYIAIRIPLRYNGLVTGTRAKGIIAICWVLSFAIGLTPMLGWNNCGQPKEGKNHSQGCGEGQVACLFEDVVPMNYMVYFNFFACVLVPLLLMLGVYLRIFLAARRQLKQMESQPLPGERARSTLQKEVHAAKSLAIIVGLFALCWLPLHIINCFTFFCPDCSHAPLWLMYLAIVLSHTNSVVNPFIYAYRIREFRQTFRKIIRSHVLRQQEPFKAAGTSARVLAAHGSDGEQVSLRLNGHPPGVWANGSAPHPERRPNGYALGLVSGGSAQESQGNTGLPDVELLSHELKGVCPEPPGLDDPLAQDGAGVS

As to `CCn1cnc2c(CNC(=O)c3nc(C)c(-c4ncco4)nc3N)cccc21` [Ex-193, 3-amino-N-[(1-ethyl-1H-benimidazol-4-yl)methyl]-6-methyl-5-(1,3-oxazol-2-yl)pyrazine-2-carboxamide], the Ki was 0.435 nM.

With `Cc1nc(C(=O)NCc2nn(C)cc2C(F)F)c(N)nc1-c1ncco1` [Ex-194, 3-amino-N-{[4-(difluoromethyl)-1-methyl-1H-pyrazol-3-yl]methyl}-6-methyl-5-(1,3-oxazol-2-yl)pyrazine-2-carboxamide], the Ki was found to be 1.65 nM. `Cc1nccnc1CNC(=O)c1nc(C)c(-c2ncco2)nc1N` [Ex-195, 3-amino-6-methyl-N-[(3-methylpyrazin-2-yl)methyl]-5-(1,3-oxazol-2-yl)pyrazine-2-carboxamide] gave a Ki of 1.71 nM. In turn, `CCc1cc(C(F)(F)F)cnc1CNC(=O)c1nc(C)c(-c2ncco2)nc1N` [Ex-196, 3-amino-N-{[3-ethyl-5-(trifluoromethyl)pyridin-2-yl]methyl}-6-methyl-5-(1,3-oxazol-2-yl)pyrazine-2-carboxamide] yielded a Ki of 2.53 nM. Regarding `Cc1nc(C(=O)NCc2ncc(C3CC3)cn2)c(N)nc1-c1ncco1` [Ex-197, 3-amino-N-[(5-cyclopropylpyrimidin-2-yl)methyl]-6-methyl-5-(1,3-oxazol-2-yl)pyrazine-2-carboxamide], the Ki is 6.37 nM. `Cc1nc(C(=O)NCc2nccc3ncn(C)c23)c(N)nc1-c1ncco1` [Ex-198, 3-amino-6-methyl-N-[(3-methyl-3H-imidazo[4,5-c]pyridin-4-yl)methyl]-5-(1,3-oxazol-2-yl)pyrazine-2-carboxamide] displayed a Ki of 8.77 nM.

`CCc1cnc(CNC(=O)c2nc(C)c(-c3ncco3)nc2N)nc1` [Ex-199, 3-amino-N-[(5-ethylpyrimidin-2-yl)methyl]-6-methyl-5-(1,3-oxazol-2-yl)pyrazine-2-carboxamide] returned an inhibition constant Ki of 9.42 nM. Molecule `Cc1nc(C(=O)N[C@H]2CCc3cc(F)ccc32)c(N)nc1-c1ncco1` [Ex-200, 3-amino-N-[(1S)-5-fluoro-2,3-dihydro-1H-inden-1-yl]-6-methyl-5-(1,3-oxazol-2-yl)pyrazine-2-carboxamide] registered a Ki of 14.7 nM. On to `Cc1nc(C(=O)N[C@H]2CCc3ccc(F)cc32)c(N)nc1-c1ncco1` [Ex-201, 3-amino-N-[(1S)-6-fluoro-2,3-dihydro-1H-inden-1-yl]-6-methyl-5-(1,3-oxazol-2-yl)pyrazine-2-carboxamide], for which the Ki worked out at 0.633 nM. In turn, `Cc1nc(C(=O)N[C@@H]2CCC[C@H]2O)c(N)nc1-c1ncco1` [Ex-202, 3-amino-N-[(1R,2R)-2-hydroxycyclopentyl]-6-methyl-5-(1,3-oxazol-2-yl)pyrazine-2-carboxamide] showed a Ki of 2.22 nM. For `Cc1nc(C(=O)N[C@H]2CCC[C@H]2F)c(N)nc1-c1ncco1` [Ex-203, 3-amino-N-[(1S,2R)-2-fluorocyclopentyl]-6-methyl-5-(1,3-oxazol-2-yl)pyrazine-2-carboxamide], the Ki was found to be 3.48 nM. To `Cc1nc(C(=O)N[C@@H]2CCC[C@H]2N(C)C)c(N)nc1-c1ncco1` [Ex-204, 3-amino-N-[(1R,2R)-2-(dimethylamino)cyclopentyl]-6-methyl-5-(1,3-oxazol-2-yl)pyrazine-2-carboxamide] belongs 1500 nM; to `Cc1nc(C(=O)N(C)[C@@H]2CCC[C@H]2O)c(N)nc1-c1ncco1` [Ex-205, 3-amino-N-[(1R,2R)-2-hydroxycyclopentyl]-N,6-dimethyl-5-(1,3-oxazol-2-yl)pyrazine-2-carboxamide], 385 nM; to `Cc1nc(C(=O)N[C@@H]2CCC[C@H]2F)c(N)nc1-c1ncco1` [Ex-206, 3-amino-N-[(1R,2R)-2-fluorocyclopentyl]-6-methyl-5-(1,3-oxazol-2-yl)pyrazine-2-carboxamide], 3.72 nM.

Regarding `Cc1nc(C(=O)N[C@H]2[C@H](C)CC[C@H]2O)c(N)nc1-c1ncco1` [Ex-207, 3-amino-N-[(1S,2R,5R)-2-hydroxy-5-methylcyclopentyl]-6-methyl-5-(1,3-oxazol-2-yl)pyrazine-2-carboxamide], the Ki turned out to be 2.92 nM. As for `C#CC[C@H]1CCC[C@H]1NC(=O)c1nc(C)c(-c2ncco2)nc1N` [Ex-208, 3-amino-6-methyl-5-(1,3-oxazol-2-yl)-N-[(1R,2R)-2-prop-2-yl-1-ylcyclopentyl]pyrazine-2-carboxamide], the inhibitory constant (Ki) was found to be 0.982 nM. For `C#C[C@H]1CCC[C@@H]1NC(=O)c1nc(C)c(-c2ncco2)nc1N` [Ex-209, 3-amino-N-[(1S,2R)-2-ethynylcyclopentyl]-6-methyl-5-(1,3-oxazol-2-yl)pyrazine-2-carboxamide], the Ki is 2.97 nM. To `Cc1nc(C(=O)NC2CCCC2F)c(N)nc1-c1ncco1` (stereo not shown) [Ex-210, 3-amino-N-(2-fluorocyclopentyl)-6-methyl-5-(1,3-oxazol-2-yl)pyrazine-2-carboxamide] belongs 1.42 nM; to `Cc1nc(C(=O)N[C@H]2CCC[C@@H]2O)c(N)nc1-c1ncco1` [Ex-211, 3-amino-N-[(1S,2S)-2-hydroxycyclopentyl]-6-methyl-5-(1,3-oxazol-2-yl)pyrazine-2-carboxamide], 7.37 nM. The molecule `Cc1nc(C(=O)N[C@@H]2CCC[C@@H]2O)c(N)nc1-c1ncco1` [Ex-212, 3-amino-N-[(1R,2S)-2-hydroxycyclopentyl]-6-methyl-5-(1,3-oxazol-2-yl)pyrazine-2-carboxamide] had a Ki of 98.9 nM. `Cc1nc(C(=O)N[C@@H]2C[C@H]3CC[C@@H]2C3)c(N)nc1-c1ncco1` [Ex-213, 3-amino-N-[(1R,2R,4S)-bicyclo[2.2.1]hept-2-yl]-6-methyl-5-(1,3-oxazol-2-yl)pyrazine-2-carboxamide] gave a Ki of 0.42 nM. To `Cc1nc(C(=O)NCc2nccc3c2ccn3C)c(N)nc1-c1ncco1` [Ex-214] belongs 0.689 nM. `Cc1nc(C(=O)NCc2nccnc2C(F)(F)F)c(N)nc1-c1ncco1` [Ex-215, 3-amino-6-methyl-5-(1,3-oxazol-2-yl)-N-{[3-(trifluoromethyl)pyrazin-2-yl]methyl}pyrazine-2-carboxamide] came in with a Ki of 1.44 nM.

Regarding `CCn1cc2cccc(CNC(=O)c3nc(C)c(-c4ncco4)nc3N)c2n1` [Ex-216, 3-amino-N-[(2-ethyl-2H-indazol-7-yl)methyl]-6-methyl-5-(1,3-oxazol-2-yl)pyrazine-2-carboxamide], the affinity, expressed as Ki, was 0.123 nM.

The molecule `Cc1nc(C(=O)NCc2cccc3c2ccn3CC(F)F)c(N)nc1-c1ncco1` [Ex-217, 3-amino-N-{[1-(2,2-difluoroethyl)-1H-indol-4-yl]methyl}-6-methyl-5-(1,3-oxazol-2-yl)pyrazine-2-carboxamide] registered a Ki of 1.4 nM.

For `Cc1nc(C(=O)NCc2cccc3c2ncn3C)c(N)nc1-c1ncco1` [Ex-218, 3-amino-6-methyl-N-[(1-methyl-1H-benzimidazol-4-yl)methyl]-5-(1,3-oxazol-2-yl)pyrazine-2-carboxamide], the inhibition constant (Ki) came out at 0.309 nM. Consider `Cc1nc(C(=O)NCc2cccc3ncn(C)c23)c(N)nc1-c1ncco1` [Ex-219, 3-amino-6-methyl-N-[(1-methyl-1H-benzimidazol-7-yl)methyl]-5-(1,3-oxazol-2-yl)pyrazine-2-carboxamide], for which the affinity, expressed as Ki, was 36.5 nM. Then `Cc1nc(C(=O)N[C@H]2CCc3cc(Cl)ccc32)c(N)nc1-c1ncco1` [Ex-222], with 9.22 nM. Then `Cc1nc(C(=O)NC2CC(O)c3cccnc32)c(N)nc1-c1ncco1` (stereo not shown) [Ex-223, 3-amino-N-(5-hydroxy-6,7-dihydro-5H-cyclopenta[b]pyridin-7-yl)-6-methyl-5-(1,3-oxazol-2-yl)pyrazine-2-carboxamide], with 2.98 nM. To `Cc1nc(C(=O)NCc2ncccc2CF)c(N)nc1-c1ncco1` [Ex-224, 3-amino-N-{[3-(fluoromethyl)pyridin-2-yl]methyl}-6-methyl-5-(1,3-oxazol-2-yl)pyrazine-2-carboxamide] belongs 0.201 nM. `Cc1nc(C(=O)NCc2ncccc2CO)c(N)nc1-c1ncco1` [Ex-225, 3-amino-N-{[3-(hydroxymethyl)pyridin-2-yl]methyl}-6-methyl-5-(1,3-oxazol-2-yl)pyrazine-2-carboxamide]: the Ki was 0.178 nM. With `Cc1nc(C(=O)NCc2cccc3c2cnn3CC(F)F)c(N)nc1-c1ncco1` [Ex-228, 3-amino-N-{[1-(2,2-difluoroethyl)-1H-indazol-4-yl]methyl}-6-methyl-5-(1,3-oxazol-2-yl)pyrazine-2-carboxamide], the affinity, expressed as Ki, was 1.74 nM. As to `Cc1nc(C(=O)NCc2cccc3c2ncn3CC2CC2)c(N)nc1-c1ncco1` [Ex-229, 3-amino-N-{[1-(cyclopropylmethyl)-1H-benzimidazol-4-yl]methyl}-6-methyl-5-(1,3-oxazol-2-yl)pyrazine-2-carboxamide], the affinity, expressed as Ki, was 0.358 nM. To `Cc1nc(C(=O)NC2Cc3ccccc3C2)c(N)nc1-c1ncco1` [Ex-235, 3-amino-N-(2,3-dihydro-1H-inden-2-yl)-6-methyl-5-(1,3-oxazol-2-yl)pyrazine-2-carboxamide] belongs 0.243 nM; to `Cc1ccc(C(C)(C)O)nc1CNC(=O)c1nc(C)c(-c2ncco2)nc1N` [Ex-236, 3-amino-N-{[6-(1-hydroxy-1-methylethyl)-3-methylpyridin-2-yl]methyl}-6-methyl-5-(1,3-oxazol-2-yl)pyrazine-2-carboxamide], 1.61 nM; to `COc1ccc(C(C)(C)O)nc1CNC(=O)c1nc(C)c(-c2ncco2)nc1N` [Ex-237, 3-amino-N-{[6-(1-hydroxy-1-methylethyl)-3-methoxypyridin-2-yl]methyl}-6-methyl-5-(1,3-oxazol-2-yl)pyrazine-2-carboxamide], 1.77 nM. Molecule `Cc1nc(C(=O)NC2CC(O)c3cccnc32)c(N)nc1-c1ncco1` (stereo not shown) [Ex-240A, 3-amino-N-(5-hydroxy-6,7-dihydro-5H-cyclopenta[b]pyridin-7-yl)-6-methyl-5-(1,3-oxazol-2-yl)pyrazine-2-carboxamide] came in with a Ki of 40.5 nM.
